ChEMBL document CHEMBL3124779, “Discovery of ABT-267, a pan-genotypic inhibitor of HCV NS5A” (J Med Chem, 2014)
In brackets after ≈: the same amount, converted by molar mass.

Tests used:
Hepatitis C virus [1] = assay: Antiviral activity against HCV1a H77 infected in human HuH7 cells assessed as inhibition of viral replication after 4 days by luciferase reporter gene assay; format: functional, organism-based, Hepacivirus hominis; details: genotype 1a H77, Huh-7, 96 h
[2] = AUC in rat at 3 mg/kg, po; format: ADME, organism-based; parameters: dose 3 mg/kg, route oral; details: plasma
Hepatitis C virus [3] = assay: Antiviral activity against HCV1b harboring NS5A L31F and Y93H mutant infected in human HuH7 cells assessed as inhibition of viral replication after 4 days by luciferase reporter gene assay; format: functional, Hepacivirus hominis, genotype 1b, Huh-7
Hepatitis C virus [4] = assay: Resistant ratio of EC50 for wild type HCV1b to EC50 for HCV1b harboring NS5A L28M and Y93H mutant infected in human HuH7 cells; format: functional, Hepacivirus hominis, genotype 1b, Huh-7
Hepatitis C virus [5] = assay: Antiviral activity against HCV1a harboring NS5A Q30R mutant infected in human HuH7 cells assessed as inhibition of viral replication after 4 days by luciferase reporter gene assay; format: functional, Hepacivirus hominis, subtype 1a, Huh-7
[6] = Kinetic solubility of the compound in 10 mM of phosphate buffer at pH 7.2 by CLND method; format: physicochemical; details: read-out: Kinetic_solubility
Hepatitis C virus [7] = assay: Resistant ratio of EC50 for wild type HCV1b to EC50 for HCV1b harboring NS5A Y93H mutant infected in human HuH7 cells; format: functional, Hepacivirus hominis, genotype 1b, Huh-7
[8] = Oral bioavailability in rat at 3 mg/kg; format: ADME, organism-based; details: in vivo
Hepatitis C virus [9] = assay: Antiviral activity against HCV1b harboring NS5A R30Q and Y93H mutant infected in human HuH7 cells assessed as inhibition of viral replication after 4 days by luciferase reporter gene assay; format: functional, Hepacivirus hominis, genotype 1b, Huh-7
[10] = Tmax in dog at 2.5 mg/kg, po; format: ADME, organism-based, Canis lupus familiaris; parameters: dose 2.5 mg/kg, route oral; details: in vivo
Hepatitis C virus [11] = assay: Antiviral activity against HCV4a infected in human HuH7 cells assessed as inhibition of viral replication after 4 days by luciferase reporter gene assay; format: functional, organism-based, Hepacivirus hominis; details: genotype 4a, Huh-7, 96 h
Hepatitis C virus [12] = assay: Antiviral activity against HCV2b infected in human HuH7 cells assessed as inhibition of viral replication after 4 days by luciferase reporter gene assay; format: functional, organism-based, Hepacivirus hominis; details: genotype 2b, Huh-7, 96 h
Hepatitis C virus [13] = assay: Ratio of EC50 for HCV1a H77 infected in human HuH7 cells in presence of 40% human plasma to EC50 for HCV1a H77 infected in human HuH7 cells in absence of 40% human plasma; format: functional, Hepacivirus hominis, genotype 1a H77, Huh-7
Hepatitis C virus [14] = assay: Resistant ratio of EC50 for wild type HCV1a to EC50 for HCV1a harboring NS5A H58D mutant infected in human HuH7 cells; format: functional, Hepacivirus hominis, subtype 1a, Huh-7
[15] = Clearance in rat at 3 mg/kg, iv; format: ADME, organism-based; parameters: dose 3 mg/kg, route intravenous; details: in vivo
[16] = AUC in dog at 2.5 mg/kg, po; format: ADME, organism-based, Canis lupus familiaris; parameters: dose 2.5 mg/kg, route oral; details: plasma
Hepatitis C virus [17] = assay: Antiviral activity against HCV1a H77 infected in human HuH7 cells assessed as inhibition of viral replication after 4 days by luciferase reporter gene assay in presence of 40% human plasma; format: functional, organism-based, Hepacivirus hominis; details: genotype 1a H77, Huh-7, Plasma, 96 h
Hepatitis C virus [18] = assay: Antiviral activity against HCV1b harboring NS5A L31M and Y93H mutant infected in human HuH7 cells assessed as inhibition of viral replication after 4 days by luciferase reporter gene assay; format: functional, Hepacivirus hominis, genotype 1b, Huh-7
[19] = Oral bioavailability in dog at 2.5 mg/kg; format: ADME, organism-based, Canis lupus familiaris; details: in vivo
[20] = Half life in rat at 3 mg/kg, po; format: ADME, organism-based; parameters: dose 3 mg/kg, route oral; details: in vivo
[21] = Half life in dog at 2.5 mg/kg, po; format: ADME, organism-based, Canis lupus familiaris; parameters: dose 2.5 mg/kg, route oral; details: in vivo
Hepatitis C virus [22] = assay: Resistant ratio of EC50 for wild type HCV1b to EC50 for HCV1b harboring NS5A L31F and Y93H mutant infected in human HuH7 cells; format: functional, Hepacivirus hominis, genotype 1b, Huh-7
[23] = Metabolic stability in rat liver microsomes assessed as compound remaining after 30 mins; format: ADME; details: read-out: Stability
Hepatitis C virus [24] = assay: Resistant ratio of EC50 for wild type HCV1a to EC50 for HCV1a harboring NS5A Y93N mutant infected in human HuH7 cells; format: functional, Hepacivirus hominis, subtype 1a, Huh-7
[25] = Cmax in HCV1 infected patient at 5 to 200 mg qd for 3 days; format: ADME, organism-based; details: human, in vivo
[26] = Clearance in dog at 1 mg/kg, iv; format: ADME, organism-based, Canis lupus familiaris; parameters: dose 1 mg/kg, route intravenous; details: in vivo
Hepatitis C virus [27] = assay: Antiviral activity against HCV3a infected in human HuH7 cells assessed as inhibition of viral replication after 4 days by luciferase reporter gene assay; format: functional, organism-based, Hepacivirus hominis; details: genotype 3a, Huh-7, 96 h
Hepatitis C virus [28] = assay: Antiviral activity against HCV1b harboring NS5A Y93H mutant infected in human HuH7 cells assessed as inhibition of viral replication after 4 days by luciferase reporter gene assay; format: functional, Hepacivirus hominis, genotype 1b, Huh-7
Hepatitis C virus [29] = assay: Resistant ratio of EC50 for wild type HCV1b to EC50 for HCV1b harboring NS5A L31V mutant infected in human HuH7 cells; format: functional, Hepacivirus hominis, genotype 1b, Huh-7
Hepatitis C virus [30] = assay: Resistant ratio of EC50 for wild type HCV1b to EC50 for HCV1b harboring NS5A L28T mutant infected in human HuH7 cells; format: functional, Hepacivirus hominis, genotype 1b, Huh-7
Hepatitis C virus [31] = assay: Antiviral activity in HCV1 infected in human assessed as log reduction of viral RNA at 5 to 200 mg qd for 3 days relative to control; format: functional, Hepacivirus hominis, genotype 1

With `COC(=O)N[C@H](C(=O)N1CCC[C@H]1C(=O)Nc1ccc([C@@H]2CC[C@@H](c3ccc(NC(=O)[C@@H]4CCCN4C(=O)[C@@H](NC(=O)OC)C(C)C)cc3)N2c2ccc(C(C)(C)C)cc2)cc1)C(C)C` [OMBITASVIR] as the compound, how does the EC50 (Hepatitis C virus [1]) read?
The EC50 was 14 pM.

What about the AUC [2] of the same compound?
The AUC was 290 ng·h/mL.

What about the Efficacy (Hepatitis C virus [3]) of the same compound?
Its Efficacy is 35%.

And the “Ratio EC50” value (Hepatitis C virus [4])?
Its value is 415.

What about the Efficacy (Hepatitis C virus [5]) of the same compound?
The Efficacy was 60%.

And the solubility kinetic [6]?
Its solubility kinetic is 2.7 µM (≈ 2.41 µg/mL).

What about the “Ratio EC50” value (Hepatitis C virus [7]) of the same compound?
Its value is 77.

What about the bioavailability [8] of the same compound?
The bioavailability was 6.2%.

What about the Efficacy (Hepatitis C virus [9]) of the same compound?
Its Efficacy is 60%.

And the Tmax [10]?
Its Tmax is 3.3 h.

And the EC50 (Hepatitis C virus [11])?
The EC50 was 1.71 pM.

And the EC50 (Hepatitis C virus [12])?
Its EC50 is 4.3 pM.

And the “Ratio EC50” value (Hepatitis C virus [13])?
The value was 13.

And the “Ratio EC50” value (Hepatitis C virus [14])?
Its value is 243.

What about the clearance [15] of the same compound?
Its clearance is 10.8 mL/min/kg.

And the AUC [16]?
The AUC was 8000 ng·h/mL.

And the EC50 (Hepatitis C virus [17])?
The EC50 was 186 pM.

And the Efficacy (Hepatitis C virus [18])?
The Efficacy was 11%.

What about the bioavailability [19] of the same compound?
Its bioavailability is 57%.

And the half-life [20]?
Its half-life is 15.9 h.

What about the half-life [21] of the same compound?
The half-life was 7.3 h.

What about the “Ratio EC50” value (Hepatitis C virus [22]) of the same compound?
The value was 10270.

And the remaining at 0.5 h [23]?
Its remaining at 0.5 h is 73%.

And the “Ratio EC50” value (Hepatitis C virus [24])?
Its value is 66739.

What about the Cmax [25] of the same compound?
The Cmax was 5.7 ng/mL.

And the clearance [26]?
The clearance was 3 mL/min/kg.

What about the EC50 (Hepatitis C virus [27]) of the same compound?
The EC50 was 19.3 pM.

What about the Efficacy (Hepatitis C virus [28]) of the same compound?
The Efficacy was 73%.

And the “Ratio EC50” value (Hepatitis C virus [29])?
Its value is 8.

And the “Ratio EC50” value (Hepatitis C virus [30])?
Its value is 661.

What about the Activity (Hepatitis C virus [31]) of the same compound?
Its Activity is “<=3.1 log10IU/ml”.
